Experimental data reported in patent publication US8937048B2, “Anti-angiogenic compounds” (Covx Technologies Ireland, Limited, priority 2008, dated 2015).

Experiments:
[1] = target: T1, human angiopoietin-2 protein (Homo sapiens, UniProt O15123); assay: Ang2 competitive ELISA (Ang-2 coated, Tie-2-Fc competition); assay type: binding
T1 construct: purchased R&D Systems
T1 sequence (O15123 19-496): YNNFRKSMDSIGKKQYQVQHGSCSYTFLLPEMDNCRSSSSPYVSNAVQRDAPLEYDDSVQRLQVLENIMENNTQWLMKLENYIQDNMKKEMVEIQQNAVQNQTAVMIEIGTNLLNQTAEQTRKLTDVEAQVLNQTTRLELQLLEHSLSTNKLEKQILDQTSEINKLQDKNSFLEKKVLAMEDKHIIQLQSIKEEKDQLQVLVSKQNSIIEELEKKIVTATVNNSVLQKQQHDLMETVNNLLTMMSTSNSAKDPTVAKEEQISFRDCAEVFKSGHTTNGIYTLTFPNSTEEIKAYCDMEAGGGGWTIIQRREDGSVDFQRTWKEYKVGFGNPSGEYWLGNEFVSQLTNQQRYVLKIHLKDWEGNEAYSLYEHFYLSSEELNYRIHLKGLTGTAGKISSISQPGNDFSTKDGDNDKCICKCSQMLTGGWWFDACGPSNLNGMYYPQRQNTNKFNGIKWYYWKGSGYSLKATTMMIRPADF
Method: The ability of Ang2 binding compounds to interact with Ang2 was measured by competition with Tie-2. These tests were described in US2008166364 (and also in PCT/IE2007/000110), whose contents are herein incorporated by reference in their entirety. In particular, those portions of PCT/IE2007/000110 and US2008166364 detailing the advantages and disadvantages of various Ang2-binding peptides, and the advantages and disadvantages of covalently linking certain Ang2-binding peptides to catalytic antibodies (and those portions specifically relating to linking to h38C2), as well as the advantages and disadvantages of using specific residues of the respective Ang2-specific peptide as the linking residue (in this context, linking residue meaning the residue covalently linked to the linker (for example as used herein in Example 4)). For competitive ELISA, human angiopoietin-2 protein and Tie-2-Fc (R&D Systems) were reconstituted without carrier protein. Mouse anti-human Tie-2 (Pharmingen) was used as the primary antibody and goat anti-mouse-IgG 1-HRP (Pierce) was used as the secondary antibody. TMB substrate from Pierce was used.
High-binding half-well plates were coated with Ang-2 (100 ng/well) in 50 W PBS and incubated at 4° C. overnight. […] Color development was monitored and stopped with 25 μl of 2 M H2SO4. OD450 nm with a correction wavelength of 540 nm was measured.

[2] = target: T1, human angiopoietin-2 protein; assay: Ang2 reverse competition ELISA (Tie-2-Fc coated); assay type: binding; conditions: Table 5, column T; read-out: Ang-2 T IC50
Method: Plates were washed three times with washing buffer (0.1% Tween 20, PBS, pH 7.4) and blocked with Superblock, 150 μl/well at RT for 1 hour. Plates were washed three times. […] Plates were washed 3 times, and 50 W of streptavidin HRP (1:200 dilution in Superblock) was added at RT for 20 minutes. […] OD450 nm with a correction wavelength of 540 nm was measured.

[3] = Mouse half-life (T 1/2) and screening half-life of Ang2 binding compounds; assay type: in vivo, Swiss Webster mice
Method: For “screening” T ½, test compounds were intravenously administered into male Swiss Webster mice. Blood samples were taken from 4 mice per time point via retroorbital sinus bleed at the following time points: 0.08, 5, and 32 hours. Blood level of test compounds were determined by ELISA. The data were reported as the percentage of test compounds at 32 hours versus 5 min. Normal T ½ was calculated in a similar fashion, after undergoing additional data analysis using WinNonlin version 4.1 (Pharsight Corporation). The data was fit to a model based upon the shape of the curve (i.e. a bi-exponential decline will be fit to a two compartment model, etc.) The criteria for best fit (i.e. lowest % CV) was based on iterative re-weighted least squares.

Row | IC50 ([1]; Table 6, column P) | IC50 ([1]; Table 5, column P) | IC50 [2] | Compound | T ½ hours ([3]; Table 5, half-life (value not in parentheses)) | T ½ (Sc) hours, screening half life ([3]; Table 5, screening half life (in parentheses), shorter test period)
1 | 36.4 nM |  |  | CSCC[C@H](NC(=O)[C@H](Cc1ccccc1)NC(=O)[C@H](CCC(N)=O)NC(=O)[C@H](CC(=O)O)NC(=O)[C@H](Cc1ccc(O)cc1)NC(=O)[C@H](CC(C)C)NC(=O)[C@@H](NC(=O)[C@H](CCCCN)NC(=O)[C@H](CC(=O)O)NC(=O)[C@H](CC(C)C)NC(=O)[C@H](CCC(=O)O)NC(=O)[C@H](CC(=O)O)NC(=O)[C@H](CC(C)C)NC(=O)[C@@H]1CCCN1C(=O)[C@H](CCC(N)=O)NC(=O)[C@H](Cc1ccc(O)cc1)NC(=O)[C@H](CCCCN)NC(=O)[C@H](CCC(N)=O)NC(C)=O)[C@@H](C)O)C(=O)N[C@@H](CC(C)C)C(=O)N[C@@H](CCC(N)=O)C(=O)N[C@@H](CCC(N)=O)C(=O)NCC(N)=O [Compound 4021] |  | 
2 |  | 17.4 nM | 207 nM | Q(Kac)Y QPL DEL DK(4P)T LYD QFM LQQ G [Compound 4024] | 104 h | (27) hours
